Reference: patent US20250002450A1, “CATIONIC STEROID COMPOUNDS, METHOD OF OBTAINING THEREOF, FORMULATIONS COMPRISING THEREOF AND THEIR USES” (UNIVERSIDADE DO PORTO, priority 2021, published 2025)
Converted amounts (≈) assume the structure as drawn.

Columns and labels:
[1] = test system: Enterococcuss faecalis ATCC 29212; experiment: Antibacterial MIC/MBC (broth microdilution); type: cell-based, Enterococcus faecalis; settings: for antibacterial activity (in words): E. faecalis ATCC 29212; for MBC / MIC: Enterococcus faecalis, ATCC29212, Enterococcuss faecalis ATCC 29212; for MBC: read-out: MBC; for MIC: read-out: MIC
Source text: (§1) Twelve reference bacterial strains and nine MDR clinically relevant bacterial strains were used in this study. Gram-negative bacteria comprised reference strains E. coli ATCC 25922, K. pneumoniae ATCC 13883, Salmonella enterica serovar Typhimurium CECT 443, P. aeruginosa ATCC 27853, A. baumannii ATCC 19606, C. jejuni ATCC 33560 (ATCC—American Type Culture Collection; CECT—Colección Espanola de Cultivos Tipo); clinical isolates E. coli SA/2, an extended-spectrum β-lactamase (ESBL)-producing strain and P. aeruginosa 33b, a pan-drug-resistant isolate; and animal isolates C. jejuni P5/4, a ciprofloxacin-resistant strain, C. jejuni 4432, C. jejuni 4433, C. jejuni 4448, and E. coli 2252, a COL-resistant strain [42]. Gram-positive strains included S. aureus ATCC 29213, E. faecalis ATCC 29212, S. pyogenes ATCC 19615, and environmental isolates methicillin-resistant S. aureus (MRSA) 66/1 [43], and VAN-resistant enterococci (VRE) E. faecalis B3/101 [44]. Gram-negative fish pathogens Yersinia ruckeri ATCC 29473, Listonella anguillarum ATCC 1924, and Tenacibaculum maritimum ATCC 43397 were also included.
(§2) Strains were kept in Trypto-Casein Soy agar (TSA—Biokar Diagnostics, Allone, Beauvais, France) slants and, before each assay, were sub-cultured in Mueller-Hinton agar (MHA—Biokar Diagnostics, Allone, Beauvais, France). Y. ruckeri ATCC 29473 and L. anguillarum ATCC 1924 were kept in Nutrient Agar (Condalab, Madrid, Spain) and T. maritimum ATCC 43397 was kept in TMM agar (Condalab, Madrid, Spain), and were sub-cultured in the respective culture media before each assay. For S. pyogenes ATCC 19615, CAMHB was supplemented with 3.75% lysed horse blood (LBH—Oxoid, Basingstoke, England), whereas for C. jejuni it was supplemented with 2.5% LHB. Colony-forming unit counts of the inoculum were conducted to determine the initial inoculum size (which should be approximately 5×10^5 CFU/mL). Sterility and growth controls were included in each assay. The 96-well U-shaped untreated polystyrene microtiter plates were incubated for 20 h at 37 degrees C. (42 degrees C. for C. jejuni, in a microaerophilic atmosphere) and the minimal inhibitory concentration (MIC) was determined as the lowest concentration of compound that prevented visible growth. The minimal bactericidal concentration (MBC) was determined by spreading 100 μL of the content of the wells with no visible growth on MH plates. The MBC was determined as the lowest concentration of compound that killed 99.9% of the initial inoculum after overnight incubation at 37 degrees C. Two independent assays were performed for reference and MDR strains.
(§3) An initial screening of the antibacterial activity of the compounds was performed by the Kirby-Bauer disk diffusion method, as recommended by the Clinical and Laboratory Standards Institute (CLSI). Briefly, sterile 6 mm blank paper disks (Oxoid, Basingstoke, England) impregnated with 15 μg of each compound were placed on inoculated MH agar plates. A blank disk with dimethylsulfoxide (DMSO) was used as a negative control. MH inoculated plates were incubated for 18-20 h at 37 degrees C. At the end of incubation, the inhibition halos where measured. The MIC was used to determine the antibacterial activity of each compound, in accordance with the recommendations of the CLSI. Two-fold serial dilutions of the compounds were prepared in Mueller-Hinton Broth 2 (MHB2—Sigma-Aldrich, St. Louis, MO, USA) within the concentration range of 0.062-64 μg/mL. CTX ranging between 0.031-16 μg/mL was used as a control. Sterility and growth controls were included in each assay. Purity checks and colony counts of the inoculum suspensions were also performed in order to ensure that the final inoculum density closely approximates the intended number (5×10^5 CFU/mL). The MIC was determined as the lowest concentration of compound that inhibited growth of the bacteria. The MBC was assessed by spreading 10 μL of culture collected from wells showing no visible growth on MH agar plates. […]

[2] = test system: E. faecalis B3/101 (VRE); experiment: Antibacterial MIC/MBC (broth microdilution); type: cell-based, Enterococcus faecalis; settings: Enterococcus faecalis, E. faecalis B3/101 (VRE); for MBC: read-out: MBC; for MIC: read-out: MIC
Source text: as §1, §2, §3

[3] = test system: Acinetobacter baumannii ATCC 19606; experiment: Antibacterial MIC/MBC (broth microdilution); type: cell-based; settings: for MBC / MIC: ATCC19606, Acinetobacter baumannii ATCC 19606; for MBC: read-out: MBC; for MIC: read-out: MIC
Source text: as §1, §2, §3

[4] = test system: Pseudomonas aeruginosa ATCC 27853; experiment: Antibacterial MIC/MBC (broth microdilution); type: cell-based; settings: ATCC27853, Pseudomonas aeruginosa ATCC 27853; for MBC: read-out: MBC; for MIC: read-out: MIC
Source text: as §1, §2, §3

[5] = test system: Escherichia coli ATCC 25922; experiment: Antibacterial MIC/MBC (broth microdilution); type: cell-based; settings: ATCC25922, Escherichia coli ATCC 25922; for MBC: read-out: MBC; for MIC: read-out: MIC
Source text: as §1, §2, §3

[6] = test system: Campylobacter jejuni ATCC 33560; experiment: Antibacterial MIC/MBC (broth microdilution); type: cell-based; settings: for MBC / MIC: ATCC33560, Campylobacter jejuni ATCC 33560; for MBC: read-out: MBC; for MIC: read-out: MIC
Source text: as §1, §2, §3

[7] = test system: Tenacibaculum maritimum ATCC 43397; experiment: Antibacterial disk diffusion; type: cell-based; settings: Tenacibaculum maritimum ATCC 43397, footnote *
Source text: as §1, §2, §3

[8] = test system: E. coli SA/2 (ESBL); experiment: Antibacterial MIC/MBC (broth microdilution); type: cell-based, Escherichia coli; settings: Escherichia coli
Source text: as §1, §2, §3

[9] = test system: E. coli 2252 (COL-resistant); experiment: Antibacterial MIC/MBC (broth microdilution); type: cell-based, Escherichia coli; settings: Escherichia coli, E. coli 2252 (COL-resistant); for MBC: read-out: MBC; for MIC: read-out: MIC
Source text: as §1, §2, §3

[10] = test system: C. jejuni 4448; experiment: Antibacterial MIC/MBC (broth microdilution); type: cell-based, Campylobacter jejuni; settings: for MBC / MIC: Campylobacter jejuni; for MBC: read-out: MBC; for MIC: read-out: MIC
Source text: as §1, §2, §3

[11] = test system: C. jejuni 4432; experiment: Antibacterial MIC/MBC (broth microdilution); type: cell-based, Campylobacter jejuni; settings: for MBC / MIC: Campylobacter jejuni; for MBC: read-out: MBC; for MIC: read-out: MIC
Source text: as §1, §2, §3

[12] = test system: C. jejuni P5/4; experiment: Antibacterial MIC/MBC (broth microdilution); type: cell-based, Campylobacter jejuni; settings: Campylobacter jejuni; for MBC: read-out: MBC; for MIC: read-out: MIC
Source text: as §1, §2, §3

[13] = test system: C. jejuni 4433; experiment: Antibacterial MIC/MBC (broth microdilution); type: cell-based, Campylobacter jejuni; settings: for MBC / MIC: Campylobacter jejuni; for MBC: read-out: MBC; for MIC: read-out: MIC
Source text: as §1, §2, §3

[14] = test system: S. aureus 66/1 (MRSA); experiment: Antibacterial MIC/MBC (broth microdilution); type: cell-based, Staphylococcus aureus; settings: Staphylococcus aureus; for MBC: read-out: MBC; for MIC: read-out: MIC
Source text: as §1, §2, §3

[15] = test system: Streptococcuss pyogenes ATCC 19615; experiment: Antibacterial MIC/MBC (broth microdilution); type: cell-based, Streptococcus pyogenes; settings: for MBC / MIC: Streptococcus pyogenes, ATCC19615, Streptococcuss pyogenes ATCC 19615; for MBC: read-out: MBC; for MIC: read-out: MIC
Source text: as §1, §2, §3

SMILES	MBC [1]	MIC [1]	MBC [2]	MIC [2]	MBC [3]	MIC [3]	MBC [4]	MIC [4]	MBC [5]	MIC [5]	MBC [6]	MIC [6]	Inhibition zone diameter (disk diffusion) [7]	MBC [8]	MIC [8]	MBC [9]	MIC [9]	MBC [10]	MIC [10]	MBC [11]	further results
CCN(CC)CCNC(=O)CC[C@@H](C)[C@H]1CC[C@H]2[C@@H]3CC[C@@H]4C[C@H](O)CC[C@]4(C)[C@H]3C[C@H](O)[C@]12C [Compound 6, (R)—N-(2-(diethylamino)ethyl)-4-((3R,5R,8R,9S,10S,12S,13R,14S,17R)-3,12-dihydroxy-10,13-dimethylhexadecahydro-1H-cyclopenta[a]phenanthren-17-yl)pentanamide]	64 µg/mL (≈ 130 µM)	64 µg/mL (≈ 130 µM)	> 64 µg/mL	> 64 µg/mL	64 µg/mL (≈ 130 µM)	64 µg/mL (≈ 130 µM)	> 64 µg/mL	> 64 µg/mL	> 64 µg/mL	64 µg/mL (≈ 130 µM)	> 64 µg/mL	> 64 µg/mL	10 mm	> 64 µg/mL	> 64 µg/mL	> 64 µg/mL	> 64 µg/mL	> 64 µg/mL	> 64 µg/mL	> 64 µg/mL	antibacterial activity (in words) [1]: exhibited antimicrobial activity; antibacterial activity (in words) ([3]; A. baumannii ATCC 19606): displayed an inhibitory effect; MIC [11]: > 64 µg/mL; MBC [12]: > 64 µg/mL; MIC [12]: > 64 µg/mL; MBC [13]: > 64 µg/mL; MIC [13]: > 64 µg/mL; MBC [14]: 64 µg/mL (≈ 130 µM); MIC [14]: 64 µg/mL (≈ 130 µM); MBC [15]: > 64 µg/mL; MIC [15]: > 64 µg/mL
C[C@H](CCC(=O)N1CCCCC1)[C@H]1CC[C@H]2[C@@H]3CC[C@@H]4C[C@H](O)CC[C@]4(C)[C@H]3C[C@H](O)[C@]12C [Compound 2, (R)-4-((3R,5R,8R,9S,10S,12S,13R,14S,17R)-3,12-dihydroxy-10,13-dimethylhexadecahydro-1H-cyclopenta[a]phenanthren-17-yl)-1-(piperidin-1-yl) pentan-1-one]	> 64 µg/mL	32 µg/mL (≈ 69.6 µM)	> 64 µg/mL	> 64 µg/mL	> 64 µg/mL	> 64 µg/mL	> 64 µg/mL	> 64 µg/mL	> 64 µg/mL	> 64 µg/mL	64 µg/mL (≈ 139 µM)	64 µg/mL (≈ 139 µM)	18 mm	> 64 µg/mL	> 64 µg/mL	> 64 µg/mL	> 64 µg/mL	> 64 µg/mL	> 64 µg/mL	> 64 µg/mL	antibacterial activity (in words) [1]: exhibited antimicrobial activity; antibacterial activity (in words) ([6]; C. jejuni ATCC 33560): showed antimicrobial activity; antibacterial activity (in words) [10]: showed antimicrobial activity; antibacterial activity (in words) [11]: showed antimicrobial activity; MIC [11]: 64 µg/mL (≈ 139 µM); MBC [12]: > 64 µg/mL; MIC [12]: > 64 µg/mL; antibacterial activity (in words) [13]: showed antimicrobial activity; MBC [13]: > 64 µg/mL; MIC [13]: > 64 µg/mL; MBC [14]: > 64 µg/mL; MIC [14]: 32 µg/mL (≈ 69.6 µM); antibacterial activity (in words) ([15]; S. pyogenes ATCC 19615): active; MBC [15]: 32 µg/mL (≈ 69.6 µM); MIC [15]: 32 µg/mL (≈ 69.6 µM)
C[C@H](CCC(=O)N1CCN(C(=O)OC(C)(C)C)CC1)[C@H]1CC[C@H]2[C@@H]3CC[C@@H]4C[C@H](O)CC[C@]4(C)[C@H]3C[C@H](O)[C@]12C [Compound 5, tert-butyl 4-((R)-4-((3R,5R,8R,9S,10S,12S,13R,14S,17R)-3,12-dihydroxy-10,13-dimethylhexadecahydro-1H-cyclopenta[a]phenanthren-17-yl)pentanoyl)piperazine-1-carboxylate]	> 64 µg/mL	> 64 µg/mL	> 64 µg/mL	> 64 µg/mL	> 64 µg/mL	> 64 µg/mL	> 64 µg/mL	> 64 µg/mL	> 64 µg/mL	> 64 µg/mL	> 64 µg/mL	> 64 µg/mL	10 mm	> 64 µg/mL	> 64 µg/mL	> 64 µg/mL	> 64 µg/mL	> 64 µg/mL	> 64 µg/mL	> 64 µg/mL	MIC [11]: > 64 µg/mL; MBC [12]: > 64 µg/mL; MIC [12]: > 64 µg/mL; MBC [13]: > 64 µg/mL; MIC [13]: > 64 µg/mL; MBC [14]: > 64 µg/mL; MIC [14]: 64 µg/mL (≈ 114 µM); MBC [15]: > 64 µg/mL; MIC [15]: > 64 µg/mL
C[C@H](CCC(=O)N1CCOCC1)[C@H]1CC[C@H]2[C@@H]3CC[C@@H]4C[C@H](O)CC[C@]4(C)[C@H]3C[C@H](O)[C@]12C [Compound 3, (R)-4-((3R,5R,8R,9S,10S,12S,13R,14S,17R)-3,12-dihydroxy-10,13-dimethylhexadecahydro-1H-cyclopenta[a]phenanthren-17-yl)-1-morpholinopentan-1-one]	> 64 µg/mL	> 64 µg/mL	> 64 µg/mL	> 64 µg/mL	> 64 µg/mL	> 64 µg/mL	> 64 µg/mL	> 64 µg/mL	> 64 µg/mL	> 64 µg/mL	> 64 µg/mL	> 64 µg/mL	10 mm	> 64 µg/mL	> 64 µg/mL	> 64 µg/mL	> 64 µg/mL	> 64 µg/mL	> 64 µg/mL	> 64 µg/mL	MIC [11]: > 64 µg/mL; MBC [12]: > 64 µg/mL; MIC [12]: > 64 µg/mL; MBC [13]: > 64 µg/mL; MIC [13]: > 64 µg/mL; MBC [14]: > 64 µg/mL; MIC [14]: > 64 µg/mL; MBC [15]: > 64 µg/mL; MIC [15]: > 64 µg/mL
